Columns and labels:
MRP2 [1] = details: mouse PXR ligand; cited from earlier work
PXR = molecular target: T1, PXR (Mus musculus, UniProt O54915); details: dextran sulfate sodium (DSS)-induced BD mouse model; cited from earlier work
T1 construct: host or cells: mice (DSS colitis model)
T1 sequence (O54915 1-431): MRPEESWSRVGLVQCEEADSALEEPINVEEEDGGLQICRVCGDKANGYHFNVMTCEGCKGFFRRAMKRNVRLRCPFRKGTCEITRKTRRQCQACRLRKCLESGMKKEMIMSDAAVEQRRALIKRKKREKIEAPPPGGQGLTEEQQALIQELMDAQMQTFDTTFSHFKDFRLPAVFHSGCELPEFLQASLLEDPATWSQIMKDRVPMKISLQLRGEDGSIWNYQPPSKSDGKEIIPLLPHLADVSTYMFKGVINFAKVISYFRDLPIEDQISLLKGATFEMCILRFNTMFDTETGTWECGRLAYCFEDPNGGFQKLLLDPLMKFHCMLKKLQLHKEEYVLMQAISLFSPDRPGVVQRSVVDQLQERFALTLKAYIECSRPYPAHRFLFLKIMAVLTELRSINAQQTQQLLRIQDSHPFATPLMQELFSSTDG

MRP2 [2] = details: rat hepatocytes; cited from earlier work
CYP3A = test: Pharmacokinetics of MDZ in hPXR mice pretreated with RIFax; details: MDZ 2.5 mg/kg oral; for AUC0-90 min / Cmax / Tmax: serum; for AUC0-90 min ratio RIFax/Cont / Cmax ratio RIFax/Cont / Tmax ratio RIFax/Cont: hPXR mice, RIFax pretreated vs control
Description: Blood samples were collected from suborbital veins using heparinized tubes at pre-dose, 5, 10, 20, 30, 60, and 90 min after administration of MDZ. Serum was separated by centrifugation at 8,000 g for 10 min. For MDZ and 1′-OH-MDZ extraction, 50 μl of serum was mixed with 150 μl of phosphate-buffered saline, 200 μl of ethyl acetate, and 200 μl of methyl t-butyl ether. The mixture was centrifuged at 3,000 rpm for 5 min at 4° C. The organic layer was then transferred to a new tube, dried with N2, and reconstituted in 100 μl of 70% aqueous methanol and 30% H2O containing 0.1% formic acid. […] Pharmacokinetic parameters for MDZ and 1′-OH-MDZ were estimated from the plasma concentration-time data by a non-compartmental approach using WinNonlin (Pharsight, Mountain View, Calif.). The area under the serum concentration-time curve (AUC0-90 min) was calculated by the trapezoidal rule. The maximum concentration in serum (Cmax) and its corresponding time (Tmax) were obtained from the original data.

in vivo = assay type: in vivo; details: mouse, in vivo, po, 10 mg/kg
Description: (§1) The maximum concentration in serum (Cmax) was obtained from the original data. […] Intestinal contents were weighted, and homogenized in methanol (100 mg/ml). The homogenate was centrifuged at 14,000 rpm for 10 min at 4° C.
(§2) The mass spectrometer was operated in the turbo ion spray mode with positive ion detection. The turbo ion spray temperature was maintained at 300° C., and a voltage of 4.8 kV was applied to the sprayer needle. N2 was used as the turbo ion spray and nebulizing gas.

[3] = Intestinal tract distribution of RIF and RIFax in mice (intestinal contents, LC-MS/MS); assay type: in vivo; details: mouse, in vivo, po, 10 mg/kg
Description: as §1, §2

[4] = Cont: hPXR mice without RIFax pretreatment
[5] = hPXR mice pretreated with RIFax 10 mg/kg/day for 3 days

In the case of CC(=O)[C@H]1[C@H](C#N)C[C@H]2[C@@H]3CC=C4C[C@@H](O)CC[C@]4(C)[C@H]3CC[C@@]21C [PCN], the MRP2 induction (MRP2 [1]) is given as “not significantly induced”, the DSS-induced colitis (PXR) is given as “significantly prevented” and the MRP2 activation (MRP2 [2]) is given as “activated”.
Work on OCc1ncc2n1-c1ccc(Cl)cc1C(c1ccccc1F)=NC2 [1′-OH-MDZ, 1′-Hydroxymidazolam] yielded an AUC0-90 min (CYP3A; [4]) of 32.4 ± 3.0 µmol·min/L, a Cmax (CYP3A; [4]) of 562 ± 4.9 nM and a Tmax (CYP3A; [4]) of 25.0 ± 7.1 min. The AUC0-90 min (CYP3A; [5]) was 36.5 ± 4.2 µmol·min/L, the Cmax (CYP3A; [5]) was 823 ± 55.2 nM and the Tmax (CYP3A; [5]) was 7.5 ± 3.5 min. The “AUC0-90 min ratio RIFax/Cont” value (CYP3A) was 1.1, the “Cmax ratio RIFax/Cont” value (CYP3A) was 1.5 and the “Tmax ratio RIFax/Cont” value (CYP3A) was 0.3.
In the case of CO[C@H]1/C=C/O[C@@]2(C)Oc3c(C)c(O)c4c(O)c(c(/C=N/N5CCN(C)CC5)c(O)c4c3C2=O)NC(=O)/C(C)=C\C=C\[C@H](C)[C@H](O)[C@@H](C)[C@@H](O)[C@@H](C)[C@H](OC(C)=O)[C@@H]1C [RIF, 3-(4-Methylpiperazinyliminomethyl)rifamycin SV], the Cmax (in vivo) is reported as 2750 nM and the “concentration in the small intestine (content)” value [3] is reported as “below 20 μg/g”.
With Cc1ncc2n1-c1ccc(Cl)cc1C(c1ccccc1F)=NC2 [MDZ, midazolam] the AUC0-90 min (CYP3A; [4]) was 8.0 ± 0.4 µmol·min/L, the Cmax (CYP3A; [4]) was 477 ± 40.3 nM and the Tmax (CYP3A; [4]) was 10.0 ± 0.0 min. It also gave an AUC0-90 min (CYP3A; [5]) of 8.9 ± 0.7 µmol·min/L, a Cmax (CYP3A; [5]) of 383 ± 19.1 nM and a Tmax (CYP3A; [5]) of 12.5 ± 10.6 min. For the same molecule, the “AUC0-90 min ratio RIFax/Cont” value (CYP3A) was 1.1, the “Cmax ratio RIFax/Cont” value (CYP3A) was 0.8 and the “Tmax ratio RIFax/Cont” value (CYP3A) was 1.3.

Reference: patent US20110055943A1, “NOVEL THERAPEUTIC TARGETS IN INFLAMMATORY BOWEL DISEASE” (SALIX PHARMACEUTICALS, LTD., priority 2007, published 2011)
